Positions of bridges follow the written chain, without caps; N, C: chain ends. Residues, ends and D or L forms follow the SMILES beside them.
Biological target: ASFV pS273R protease (African swine fever virus, UniProt Q00946)
Format: biochemical

Sequence of ASFV pS273R protease (Q00946 whole entry, looked up): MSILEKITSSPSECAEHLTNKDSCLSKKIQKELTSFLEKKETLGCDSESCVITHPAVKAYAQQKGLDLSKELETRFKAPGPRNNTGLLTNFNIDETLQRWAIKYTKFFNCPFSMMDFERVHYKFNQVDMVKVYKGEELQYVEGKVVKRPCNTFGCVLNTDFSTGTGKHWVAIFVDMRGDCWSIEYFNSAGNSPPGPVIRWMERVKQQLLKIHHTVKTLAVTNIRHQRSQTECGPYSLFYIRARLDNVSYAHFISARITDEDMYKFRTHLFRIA

CC[C@H](C)[C@@H]1NC(=O)CNC(=O)[C@H](CO)NC(=O)[C@@H]2CSSC[C@@H](C(=O)N[C@@H](Cc3ccc(O)cc3)C(=O)O)NC(=O)[C@H](CCCCN)NC(=O)[C@@H]3CSSC[C@H](NC(=O)[C@H](CCC(N)=O)NC(=O)[C@H](Cc4ccc(O)cc4)NC(=O)[C@H](CCC(N)=O)NC(=O)[C@H](CC(N)=O)NC(=O)[C@H](Cc4ccccc4)NC(=O)[C@@H]4CCCN4C(=O)[C@@H](NC(=O)CNC(=O)[C@H](Cc4ccc(O)cc4)NC(=O)CN)CSSC[C@H](NC(=O)[C@H](Cc4ccc(O)cc4)NC(=O)CNC(=O)CNC(=O)[C@H](CCCCN)NC(=O)[C@H](Cc4ccc(O)cc4)NC(=O)CNC(=O)[C@H](CCCNC(=N)N)NC1=O)C(=O)N[C@@H](CCCCN)C(=O)NCC(=O)N[C@@H]([C@@H](C)O)C(=O)N[C@@H](Cc1ccccc1)C(=O)N[C@@H](CCCCN)C(=O)N[C@@H](CCC(N)=O)C(=O)N[C@@H]([C@@H](C)O)C(=O)N3)C(=O)N[C@@H](Cc1c[nH]cn1)C(=O)N[C@@H](CO)C(=O)N[C@@H](Cc1c[nH]cn1)C(=O)N2 [OPTX-1] (H-GYGCPFNQYQCHSHCSGIRGYKGGYCKGTFKQTCKCY-OH; disulfide 4-26, 11-34, 15-36 (inferred); N-terminus and C-terminus assumed)
mode of inhibition of pS273R protease: competitive inhibitor of the pS273R protease

From PMC8678048 (Frontiers in Microbiology, 2021)
